Earlier results on 33 molecules are cited in publication PMC11170107, “Development of a new hazard scoring system in primary neuronal cell cultures for drug-induced acute neuronal toxicity identification in early drug discovery” (Frontiers in Pharmacology, 2024).

Some results are limits rather than exact numbers.

The conditions of series [1]: cited from earlier work; for Free Cmax highest: Supplementary Table S1.
For series [2] the following is noted: WHO adverse drug reactions VigiBase; ref Kumlien and Lundberg, 2010; cited from earlier work.
The conditions of series [3]: seizure ADR frequency in SIDER; ref Campillos et al., 2008; Kuhn et al., 2010; cited from earlier work.
For series [4] the following is noted: ref National library of medicine, Daylimed; cited from earlier work.

For `NC[C@H]1CC[C@H](C(=O)O)CC1` [Tranexamic Acid], in series [1], the “Free Cmax highest” value was 101250 nM and the “free Cmax concentration in man” value is > 100000 nM. In addition, in series [2], the “Percentage seizures of total number of ADRs” value (“Percentage seizures” for short) is 1.5%. In addition, the “SIDER ADR on-/off-label” value in series [3] is “postmarketing”. Further, in series [4], the “FDA prescription information at therapeutic dose (Convulsion/ Seizure/Lower the seizure threshold/withdrawal)” value was “On label”.

Turning to `Cc1nccn1CC1CCc2c(c3ccccc3n2C)C1=O` (centres unmarked) [Ondansetron], the “Free Cmax highest” value in series [1] was 51.3 nM. Besides, the “Percentage seizures” value in series [2] was 1.344%. Also, the “SIDER ADR on-/off-label” value in series [3] is recorded as “uncommon”. For the same molecule, the “FDA prescription information at therapeutic dose (Convulsion/ Seizure/Lower the seizure threshold/withdrawal)” value in series [4] is listed as “on label”.

Take `CN1CCN(C2=Nc3cc(Cl)ccc3Nc3ccccc32)CC1` [Clozapine]: in series [1], the “Free Cmax highest” value is 70 nM.

With `CC(=O)/N=c1/sc(S(N)(=O)=O)nn1C` [Methazolamide], in series [1], the “Free Cmax highest” value is 20400 nM. The “Percentage seizures” value in series [2] is reported as 0%. Besides, the “SIDER ADR on-/off-label” value in series [3] is “no frequency information”. Besides, the “FDA prescription information at therapeutic dose (Convulsion/ Seizure/Lower the seizure threshold/withdrawal)” value in series [4] is recorded as “On label”.

On to `C[C@@H]([C@@H](O)c1ccc(O)cc1)N1CCC(O)(c2ccccc2)CC1` [Traxoprodil (CP-101606), Traxoprodil], for which the “Free Cmax highest” value in series [1] was 94 nM.

For the molecule `CC(N)Cc1ccccc1` (centres unmarked) [Amphetamine], in series [2], the “Percentage seizures” value was 1.043%.

As to `CNCCCC12CCC(c3ccccc31)c1ccccc12` [Maprotiline], the “Free Cmax highest” value in series [1] is 73.3 nM. Besides, in series [2], the “Percentage seizures” value was 7.924%. In addition, the “SIDER ADR on-/off-label” value in series [3] is on record as “no frequency information”.

Consider `O=C1N(c2ccccc2)c2ccccc2C1(Cc1ccncc1)Cc1ccncc1` [Linopirdine], for which, in series [1], the “Free Cmax highest” value is 3000 nM.

Regarding `CC[C@@H]1C(=O)OC[C@@H]1Cc1cncn1C` [Pilocarpine], in series [1], the “Free Cmax highest” value was 375 nM. The “Percentage seizures” value in series [2] is given as 0.1965%. For the same molecule, the “SIDER ADR on-/off-label” value in series [3] was “not found on label”. The “FDA prescription information at therapeutic dose (Convulsion/ Seizure/Lower the seizure threshold/withdrawal)” value in series [4] was “not found on label”.

Take `CN(C)CCCN1c2ccccc2CCc2ccc(Cl)cc21` [Clomipramine]: in series [1], the “Free Cmax highest” value is 9 nM.

Consider `COc1ccc2c3c1O[C@H]1[C@@H](O)C=C[C@H]4[C@@H](C2)N(C)CC[C@@]341` [Codeine], for which the “Free Cmax highest” value in series [1] was 880 nM.

Regarding `CCN(CC)C(C)C(=O)c1ccccc1` (centres unmarked) [Amfepramone], the “Free Cmax highest” value in series [1] is 90 nM.

Consider `COC(=O)C(c1ccccc1)C1CCCCN1` (centres unmarked) [Methylphenidate], for which the “Free Cmax highest” value in series [1] was 165 nM. Also, the “SIDER ADR on-/off-label” value in series [3] is “postmarketing”. Besides, the “FDA prescription information at therapeutic dose (Convulsion/ Seizure/Lower the seizure threshold/withdrawal)” value in series [4] was “On label”.

Turning to `OC[C@@H](O)[C@@H](O)[C@H](O)[C@@H](O)CO` [Sorbitol], the “Percentage seizures” value in series [2] is reported as 0.6135%. The “SIDER ADR on-/off-label” value in series [3] is recorded as “no frequency information”. The “FDA prescription information at therapeutic dose (Convulsion/ Seizure/Lower the seizure threshold/withdrawal)” value in series [4] is given as “not found on label”.

In the case of `OC(CCN1CCCCC1)(c1ccccc1)C1CCCCC1` (centres unmarked) [Trihexyphenidyl], the “Free Cmax highest” value in series [1] was 24 nM. In series [2], the “Percentage seizures” value was 0.7979%. Also, in series [3], the “SIDER ADR on-/off-label” value was “not found on label”. Besides, the “FDA prescription information at therapeutic dose (Convulsion/ Seizure/Lower the seizure threshold/withdrawal)” value in series [4] is “not found on label”.

For the molecule `CC(C)NCC(O)COc1cccc2ccccc12` (centres unmarked) [Propranolol], the “Free Cmax highest” value in series [1] is 120 nM.

As for `CC[C@@H](C(N)=O)N1CCCC1=O` [Levetiracetam], in series [1], the “Free Cmax highest” value was 276350 nM. The “Percentage seizures” value in series [2] was 15.5539%. The “SIDER ADR on-/off-label” value in series [3] is reported as 2.38% - 6%. Further, the “FDA prescription information at therapeutic dose (Convulsion/ Seizure/Lower the seizure threshold/withdrawal)” value in series [4] was “On label”.

`CCCC(CCC)C(=O)O` [Valproic acid]: the “Free Cmax highest” value in series [1] is 92000 nM. Also, in series [2], the “Percentage seizures” value was 4.854%. Moreover, the “SIDER ADR on-/off-label” value in series [3] is recorded as “not found on label”. Moreover, the “FDA prescription information at therapeutic dose (Convulsion/ Seizure/Lower the seizure threshold/withdrawal)” value in series [4] is listed as “on label”.

As to `CC(CN1c2ccccc2Sc2ccccc21)N(C)C` (centres unmarked) [Promethazine], in series [1], the “Free Cmax highest” value is 72 nM. The “Percentage seizures” value in series [2] was 1.639%. For the same molecule, in series [3], the “SIDER ADR on-/off-label” value is “no frequency information”. For the same molecule, the “FDA prescription information at therapeutic dose (Convulsion/ Seizure/Lower the seizure threshold/withdrawal)” value in series [4] is recorded as “on label”.

Regarding `Clc1ccc2c(c1)C(N1CCNCC1)=Nc1ccccc1O2` [Amoxapine], the “Free Cmax highest” value in series [1] was 10 nM. The “Percentage seizures” value in series [2] was 4.864%. Besides, the “SIDER ADR on-/off-label” value in series [3] was “no frequency information”. The “FDA prescription information at therapeutic dose (Convulsion/ Seizure/Lower the seizure threshold/withdrawal)” value in series [4] was “on label”.

Take `COc1c(N2C[C@@H]3CCCN[C@@H]3C2)c(F)cc2c(=O)c(C(=O)O)cn(C3CC3)c12` [Moxifloxacin]: in series [1], the “Free Cmax highest” value is 8134 nM.

As to `NC12CC3CC(CC(C3)C1)C2` [Amantadine], the “Free Cmax highest” value in series [1] was 2840 nM.

Regarding `Cc1ccccc1C(OCCN(C)C)c1ccccc1` (centres unmarked) [Orphenadrine], in series [1], the “Free Cmax highest” value was 10 nM. Moreover, the “Percentage seizures” value in series [2] is listed as 0.6083%. The “SIDER ADR on-/off-label” value in series [3] was “not found on label”. The “FDA prescription information at therapeutic dose (Convulsion/ Seizure/Lower the seizure threshold/withdrawal)” value in series [4] is given as “not found on label”.

Take `CC(C)(C)C(O)/C=C/c1ccc2c(c1)OCO2` (centres unmarked) [Stiripentol]: the “Free Cmax highest” value in series [1] is 670 nM.

Turning to `CC1CCN(CCCC(=O)c2ccc(F)cc2)CC1` [Melperone], the “Free Cmax highest” value in series [1] is 240 nM.

For the molecule `CN(C)CCCN1c2ccccc2Sc2ccc(Cl)cc21` [Chlorpromazine], in series [1], the “Free Cmax highest” value was 54 nM. Also, in series [2], the “Percentage seizures” value is on record as 1.468%. Further, the “FDA prescription information at therapeutic dose (Convulsion/ Seizure/Lower the seizure threshold/withdrawal)” value in series [4] is on record as “On label”.

`CN1CCN(C(c2ccccc2)c2ccccc2)CC1` [Cyclizine]: in series [1], the “Free Cmax highest” value was 105 nM. Moreover, in series [2], the “Percentage seizures” value is listed as 1.797%. Moreover, the “SIDER ADR on-/off-label” value in series [3] is given as “no frequency information”.

For `Cn1c(=O)c2[nH]cnc2n(C)c1=O` [Theophylline], the “Free Cmax highest” value in series [1] is 26580 nM. The “Percentage seizures” value in series [2] is given as 4.2336%.

For the molecule `CC(C)(C)NCC(O)c1ccc(O)c(CO)c1` (centres unmarked) [Salbutamol], the “Free Cmax highest” value in series [1] is 56 nM. Also, the “Percentage seizures” value in series [2] is 0.3555%.

`Cc1ccc(F)c(NC(=O)Nc2ccc(-c3cccc4[nH]nc(N)c34)cc2)c1` [Linifanib]: the “Percentage seizures” value in series [2] is listed as 0%.

As to `CC(=O)Nc1ccc(O)cc1` [Acetaminophen], the “Free Cmax highest” value in series [1] was 540 nM. The “Percentage seizures” value in series [2] was 0.4389%. The “FDA prescription information at therapeutic dose (Convulsion/ Seizure/Lower the seizure threshold/withdrawal)” value in series [4] was “not found on label”.

Regarding `CN(C)CCCN1c2ccccc2CCc2ccccc21` [Imipramine], in series [1], the “Free Cmax highest” value is 53 nM. Moreover, the “Percentage seizures” value in series [2] is recorded as 1.538%. In series [4], the “FDA prescription information at therapeutic dose (Convulsion/ Seizure/Lower the seizure threshold/withdrawal)” value is given as “On label”.

Consider `COc1ccc(Cl)cc1[C@]1(F)C(=O)Nc2cc(C(F)(F)F)ccc21` [Flindokalner], for which the “Free Cmax highest” value in series [1] is 340 nM.
